Reference: US9682967B2

Assays:
mSortilin = mSortilin (Mus musculus (Mouse), UniProt Q6PHU5); assay: mSortilin affinity assay (displacement of 3H-neurotensin, SPA); type: binding
Procedure: Mouse his-Sortilin was purchased from R&D Systems.
The Sortilin assay was performed in total volume of 40 ul in 50 mM HEPES pH 7.4 assay buffer containing 100 mM NaCl, 2.0 mM CaCl2, 0.1% BSA and 0.1% Tween-20. Varying concentration of compounds where pre-incubated for 30 min at RT with 50 nM of 6his-Sortilin. […] Ni chelate imaging beads (Perkin elmer) was added and the plate was slowly shacked in the dark for 60 min. The imaging beads were allowed minimum 6 hours settling time before the plate was read on a ViewLux with 360 sec exposure time. Dose-response evaluation of compounds was performed with 10 concentrations of drugs (covering 3 decades). IC50 values were calculated by nonlinear regression using the sigmoid concentration-response (variable slope) using Xlfit 4 (IDBS, UK). The results were given as Ki values (nM) derived from computer fitted IC50 values converted to Ki values using the Cheng-Prusoff equation (Ki=IC50/(1+(L/Kd))).

[1] = target: human sortilin (S-18 cells) (Homo sapiens (Human), UniProt Q99523); assay: Endogenous PGRN endocytosis assay (PGRN ELISA of media); type: cell-based; conditions: for PGRN levels in cell culture media (FIG. 1): PGRN allowed to accumulate 24 hrs, then compounds for further 24 hrs
[2] = target: human sortilin (HEK 293 / S-18 cells) (Homo sapiens (Human), UniProt Q99523); assay: Cellomics progranulin assay (PGRN binding/endocytosis, staining intensity); type: cell-based; conditions: compounds 30 min, then PGRN 60 min
Procedure: Cellomics Progranulin Assay
Transfected HEK 293 cells (with control or sortilin expression plasmids) or stable HEK293 cells expressing human sortilin (S-18) were used in this assay. Cells are trypsinized and plated in 96 well plates. In the case of transiently transfected cells, they were plated 24 hrs after transfection in 96 well plates. Next day, media was changed completely and test compounds added to cells for 30 min. followed by PGRN for 60 min. At the end of the study (after 1.5 hrs), the cells were fixed and stained for sortilin and progranulin. All stained plates were analyzed by Cellomics Array Scan (Thermo Fischer) and average staining intensity for PGRN and sortilin are calculated per cell in each well.

hSortilin = hSortilin (Homo sapiens (Human), UniProt Q99523); assay: hSortilin affinity assay (displacement of 3H-neurotensin, SPA); type: binding
Sequence of hSortilin (Q99523 34-755): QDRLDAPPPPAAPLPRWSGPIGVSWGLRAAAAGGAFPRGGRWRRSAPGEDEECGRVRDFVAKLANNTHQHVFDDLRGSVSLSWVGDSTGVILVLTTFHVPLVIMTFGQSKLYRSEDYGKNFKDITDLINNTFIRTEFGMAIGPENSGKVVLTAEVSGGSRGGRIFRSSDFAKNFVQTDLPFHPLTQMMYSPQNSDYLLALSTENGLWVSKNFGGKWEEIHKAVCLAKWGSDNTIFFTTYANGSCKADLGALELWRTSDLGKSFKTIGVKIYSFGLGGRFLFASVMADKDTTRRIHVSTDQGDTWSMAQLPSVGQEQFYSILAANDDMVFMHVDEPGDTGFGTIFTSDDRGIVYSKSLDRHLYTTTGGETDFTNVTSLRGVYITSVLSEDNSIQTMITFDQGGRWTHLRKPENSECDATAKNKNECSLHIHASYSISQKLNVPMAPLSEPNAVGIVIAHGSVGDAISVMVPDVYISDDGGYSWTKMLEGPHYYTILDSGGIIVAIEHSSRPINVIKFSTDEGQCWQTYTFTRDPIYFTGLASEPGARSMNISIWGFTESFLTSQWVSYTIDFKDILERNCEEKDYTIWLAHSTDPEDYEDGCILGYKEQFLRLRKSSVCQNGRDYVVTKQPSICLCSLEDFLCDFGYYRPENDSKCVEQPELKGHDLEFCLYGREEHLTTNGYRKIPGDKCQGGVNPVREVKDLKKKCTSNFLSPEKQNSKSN

Sequence of human sortilin (S-18 cells) (Q99523 78-831): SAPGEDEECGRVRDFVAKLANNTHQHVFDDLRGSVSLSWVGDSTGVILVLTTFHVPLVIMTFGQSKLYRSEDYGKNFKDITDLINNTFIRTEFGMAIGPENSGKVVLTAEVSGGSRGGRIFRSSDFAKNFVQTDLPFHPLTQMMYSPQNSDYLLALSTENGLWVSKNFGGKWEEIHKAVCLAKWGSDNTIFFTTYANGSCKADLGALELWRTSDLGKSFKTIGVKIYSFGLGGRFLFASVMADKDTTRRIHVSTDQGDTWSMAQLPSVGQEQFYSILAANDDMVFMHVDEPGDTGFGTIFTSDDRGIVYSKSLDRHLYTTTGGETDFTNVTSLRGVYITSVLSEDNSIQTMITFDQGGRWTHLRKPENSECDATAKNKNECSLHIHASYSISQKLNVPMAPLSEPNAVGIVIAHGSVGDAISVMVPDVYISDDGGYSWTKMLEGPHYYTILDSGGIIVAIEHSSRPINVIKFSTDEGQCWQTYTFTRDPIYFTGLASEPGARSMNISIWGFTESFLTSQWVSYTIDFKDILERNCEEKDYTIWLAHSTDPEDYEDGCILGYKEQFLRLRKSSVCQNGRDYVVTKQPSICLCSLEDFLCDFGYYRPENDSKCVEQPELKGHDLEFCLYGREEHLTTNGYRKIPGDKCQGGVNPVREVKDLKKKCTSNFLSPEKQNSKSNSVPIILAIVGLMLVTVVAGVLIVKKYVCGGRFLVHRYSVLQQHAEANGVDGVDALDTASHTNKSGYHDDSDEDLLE
Sequence of human sortilin (HEK 293 / S-18 cells) (Q99523 78-831): as above
Sequence of mSortilin (Q6PHU5 74-825): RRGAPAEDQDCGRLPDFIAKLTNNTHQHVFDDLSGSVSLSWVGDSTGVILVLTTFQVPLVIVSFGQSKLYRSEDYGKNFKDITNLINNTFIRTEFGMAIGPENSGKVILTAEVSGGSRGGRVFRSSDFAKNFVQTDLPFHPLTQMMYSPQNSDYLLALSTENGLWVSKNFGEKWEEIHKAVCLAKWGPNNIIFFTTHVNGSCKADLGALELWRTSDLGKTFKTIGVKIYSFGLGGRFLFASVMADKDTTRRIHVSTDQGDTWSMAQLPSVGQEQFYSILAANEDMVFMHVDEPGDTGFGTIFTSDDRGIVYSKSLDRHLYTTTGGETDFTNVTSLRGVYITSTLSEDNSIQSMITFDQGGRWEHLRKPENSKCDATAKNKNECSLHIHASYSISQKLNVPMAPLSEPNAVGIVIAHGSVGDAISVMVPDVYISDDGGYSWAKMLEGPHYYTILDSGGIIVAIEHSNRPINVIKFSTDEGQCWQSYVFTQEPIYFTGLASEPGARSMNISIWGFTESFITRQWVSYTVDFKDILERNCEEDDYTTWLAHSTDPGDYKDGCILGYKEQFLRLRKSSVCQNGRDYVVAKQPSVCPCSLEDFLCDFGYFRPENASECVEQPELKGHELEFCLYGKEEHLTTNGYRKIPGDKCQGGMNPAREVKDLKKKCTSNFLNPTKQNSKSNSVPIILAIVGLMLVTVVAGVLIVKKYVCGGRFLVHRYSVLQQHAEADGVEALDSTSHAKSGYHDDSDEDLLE

| IC50 (hSortilin; [3H]-Neurotensin 5 nM, 150 nM 6his-Sortilin, read-out: hSortilin NTS Binding IC50) [nM] | Ki (hSortilin; from IC50 by Cheng-Prusoff, Kd neurotensin 100 nM) [nM] | Compound | IC50 (mSortilin; [3H]-Neurotensin 5 nM, 50 nM 6his-Sortilin, read-out: mSortilin NTS Binding IC50) [nM] | Ki (mSortilin; from IC50 by Cheng-Prusoff) [nM] | increase in PGRN in cell culture media as compared to control wells ([1]; 10 uM, media collected on day 3) | PGRN levels in cell culture media (FIG. 1) [1] | PGRN fluorescence intensity / binding or endocytosis of PGRN to sortilin expressing cells (FIG. 2) [2] |
| --- | --- | --- | --- | --- | --- | --- | --- |
|  |  | Cc1cccc(NC(=O)c2ccc(C(F)(F)F)cc2C(=O)O)n1 [Example 1, N-(6-Methyl-pyridin-2-yl)-5-trifluoromethyl-phthalamic acid] | 220 | 210 | 85-100% | increase in PGRN levels | blocks binding or endocytosis of PGRN |
| 640 | 614 | Cc1cc(NC(=O)c2ccc(C(F)(F)F)cc2C(=O)O)cc(C)n1 [Example 51, 2-((2,6-dimethylpyridin-4-yl)carbamoyl)-5-(trifluoromethyl)benzoic acid] |  |  |  |  |  |
|  |  | scrambled neurotensin: scrambled neurotensin, sequence LIYPRNEYELRKP (SEQ ID NO:1); negative control (Scrambled Human Neurotensin) [reference compound] |  |  |  | did not have any effect | significantly increased |
